Test results: ChEMBL document CHEMBL4725362, “Discovery of Novel Inhibitors of a Critical Brain Enzyme Using a Homology Model and a Deep Convolutional Neural Network” (J Med Chem, 2020)

Assay: Inhibition of N-terminal MBP tagged and C-terminal 6x-His-tagged ANAT (unknown origin) expressed in Escherichia coli BL21(DE3) assessed as reduction in coenzyme A production using DTNB incubated up to 30 mins in presence of 0.1%Triton X-100
Set-up: species or system Homo sapiens

IC50	SMILES
6.1 µM	CCOC(=O)c1sc(NC(=O)COC(=O)Cn2c(=O)cnc3ccccc32)cc1C
4.82 µM	Nc1cc(N)nc(SCc2ncc(-c3ccc(F)cc3)o2)n1
1.25 µM	Cc1c(C(=O)O)sc2[nH]c(=O)cc(CSc3nnc(C4CC4)[nH]3)c12
2.71 µM	Cc1nnc(SCc2nnc(-c3c(-c4ccccc4)noc3C)o2)s1
